For the assay, the target named is ROCK2 (Homo sapiens, UniProt O75116). Briefly: ROCK kinase inhibition assay, FITC peptide substrate, LABCHIP 3000 readout. The format is biochemical. The note with it: 5 μM ATP, 1.5 μM peptide substrate. The method, boiled down: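 Rho kinase variants started the reaction with compound present (DMSO <2%); after incubation, EDTA stop, and phosphorylated and non-phosphorylated peptide separated by microfluidic electrophoresis. Dose-response format, inhibition calculated at each concentration.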
Chain of ROCK2 (O75116 whole entry, species assumed): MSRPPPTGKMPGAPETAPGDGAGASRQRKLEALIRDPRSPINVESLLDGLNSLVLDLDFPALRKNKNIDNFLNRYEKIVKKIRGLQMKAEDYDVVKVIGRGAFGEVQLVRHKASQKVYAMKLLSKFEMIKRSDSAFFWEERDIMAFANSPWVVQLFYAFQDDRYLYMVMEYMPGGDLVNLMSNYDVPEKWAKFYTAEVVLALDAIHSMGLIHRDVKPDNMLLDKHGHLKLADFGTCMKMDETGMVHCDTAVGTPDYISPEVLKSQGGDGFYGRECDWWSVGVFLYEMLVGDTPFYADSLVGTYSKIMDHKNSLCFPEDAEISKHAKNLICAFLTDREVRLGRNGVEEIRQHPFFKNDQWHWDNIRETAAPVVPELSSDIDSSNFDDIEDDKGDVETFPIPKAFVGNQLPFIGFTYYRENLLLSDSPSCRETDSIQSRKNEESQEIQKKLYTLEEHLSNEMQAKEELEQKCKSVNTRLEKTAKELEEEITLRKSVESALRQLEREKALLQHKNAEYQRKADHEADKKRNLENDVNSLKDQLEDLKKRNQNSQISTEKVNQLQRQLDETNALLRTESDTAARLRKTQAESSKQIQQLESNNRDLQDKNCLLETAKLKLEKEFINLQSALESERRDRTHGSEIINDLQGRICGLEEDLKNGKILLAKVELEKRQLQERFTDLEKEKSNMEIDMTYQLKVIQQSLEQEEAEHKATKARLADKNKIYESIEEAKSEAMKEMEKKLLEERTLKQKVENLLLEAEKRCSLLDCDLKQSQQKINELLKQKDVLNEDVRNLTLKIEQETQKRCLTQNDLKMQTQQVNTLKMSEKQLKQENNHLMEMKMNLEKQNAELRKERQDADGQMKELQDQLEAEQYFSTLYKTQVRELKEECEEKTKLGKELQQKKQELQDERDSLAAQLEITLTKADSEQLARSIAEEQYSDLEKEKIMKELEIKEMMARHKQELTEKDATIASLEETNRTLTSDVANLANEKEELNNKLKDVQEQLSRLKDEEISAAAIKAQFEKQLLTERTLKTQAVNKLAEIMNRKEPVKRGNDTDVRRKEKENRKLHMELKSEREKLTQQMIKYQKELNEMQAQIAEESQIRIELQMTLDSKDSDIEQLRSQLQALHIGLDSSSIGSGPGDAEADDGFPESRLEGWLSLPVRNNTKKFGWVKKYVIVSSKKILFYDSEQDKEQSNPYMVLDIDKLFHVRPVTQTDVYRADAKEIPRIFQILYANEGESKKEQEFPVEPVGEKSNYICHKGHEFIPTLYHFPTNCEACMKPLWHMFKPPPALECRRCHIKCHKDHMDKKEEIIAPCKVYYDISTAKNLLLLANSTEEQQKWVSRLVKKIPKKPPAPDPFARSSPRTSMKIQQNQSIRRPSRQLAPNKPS

pIC50: −log10 of the molar value. Counter-ions that a name gives are not always drawn.

IC50 data for 23 compounds are collected here from patent publication US11192891B2, “Diazaspiro ROCK inhibitors” (BRISTOL-MYERS SQUIBB COMPANY, priority 2017, dated 2021).

The compound `O=C(c1ccc(OC(F)(F)F)cc1)N1CCC2(CC1)CCN(c1ccc(-c3cn[nH]c3)cc1)C2=O` [Example 10, 2-[4-(1H-pyrazol-4-yl)phenyl]-8-[4-(trifluoromethoxy)benzoyl]-2,8-diazaspiro[4.5]decan-1-one] showed a negative logarithm of the IC50 (pIC50) of 7.02.

With `COc1cc(N2CCC3(CCN(C(=O)c4ccc(CN5CCOCC5)cc4)CC3)C2=O)ccc1-c1cn[nH]c1` [Example 180, 2-[3-methoxy-4-(1H-pyrazol-4-yl)phenyl]-8-{4-[(morpholin-4-yl)methyl]benzoyl}-2,8-diazaspiro[4.5]decan-1-one], the pIC50 is 7.57. This pIC50 is 0.55 log units higher than that of the compound before. `COc1cc(N2CCC3(CCN(C(=O)c4cc(C5CC5)n[nH]4)CC3)C2=O)ccc1-c1cn[nH]c1` [Example 111, 8-(3-cyclopropyl-1H-pyrazole-5-carbonyl)-2-[3-methoxy-4-(1H-pyrazol-4-yl)phenyl]-2,8-diazaspiro[4.5]decan-1-one] gave a pIC50 of 7.77. In turn, `COc1cc(F)ccc1C(=O)N1CCC2(CC1)CCN(c1ccc(-c3cn[nH]c3)cc1)C2=O` [Example 9, 8-(4-fluoro-2-methoxybenzoyl)-2-[4-(1H-pyrazol-4-yl)phenyl]-2,8-diazaspiro[4.5]decan-1-one] gave a pIC50 of 6.62. In turn, `COc1cc(N2CCC3(CCN(C(=O)c4ccc(-c5ccccc5)cc4)CC3)C2=O)ccc1-c1cn[nH]c1` [Example 61, 8-{[1,1′-biphenyl]-4-carbonyl}-2-[3-methoxy-4-(1H-pyrazol-4-yl)phenyl]-2,8-diazaspiro[4.5]decan-1-one] showed a pIC50 of 7.74. This pIC50 lies 1.12 log units higher than the previous one. Take `COc1cc(N2CCC3(CCN(C(=O)c4csc(-c5ccccc5)n4)CC3)C2=O)ccc1-c1cn[nH]c1` [Example 84, 2-[3-methoxy-4-(1H-pyrazol-4-yl)phenyl]-8-(2-phenyl-1,3-thiazole-4-carbonyl)-2,8-diazaspiro[4.5]decan-1-one]: the pIC50 was 6.86. On to `COc1cc(N2CCC3(CCN(C(=O)c4csc(-c5cccnc5)n4)CC3)C2=O)ccc1-c1cn[nH]c1` [Example 78, 2-[3-methoxy-4-(1H-pyrazol-4-yl)phenyl]-8-[2-(pyridin-3-yl)-1,3-thiazole-4-carbonyl]-2,8-diazaspiro[4.5]decan-1-one], for which the pIC50 was 7.12. `CCN(CC)c1ccc(C(=O)N2CCC3(CC2)CCN(c2ccc(-c4cn[nH]c4)c(OC)c2)C3=O)cc1` [Example 194, 8-[4-(diethylamino)benzoyl]-2-[3-methoxy-4-(1H-pyrazol-4-yl)phenyl]-2,8-diazaspiro[4.5]decan-1-one]: the pIC50 was 8.28. The compound `COc1cc(N2CCC3(CCN(C(=O)c4ccc(N5CCN(Cc6ccc(N(C)C)cc6)CC5)cc4)CC3)C2=O)ccc1-c1cn[nH]c1` [Example 245, 8-[4-(4-{[4-(dimethylamino)phenyl]methyl}piperazin-1-yl)benzoyl]-2-[3-methoxy-4-(1H-pyrazol-4-yl)phenyl]-2,8-diazaspiro[4.5]decan-1-one] showed a pIC50 of 10.00. In turn, `COc1cc(N2CCC3(CCN(C(=O)c4ccc(-c5ccc(S(C)(=O)=O)cc5)cc4)CC3)C2=O)ccc1-c1cn[nH]c1` [Example 173, 8-{4′-methanesulfonyl-[1,1′-biphenyl]-4-carbonyl}-2-[3-methoxy-4-(1H-pyrazol-4-yl)phenyl]-2,8-diazaspiro[4.5]decan-1-one] had a pIC50 of 8.43. Regarding `CN1CCN(c2ccc(C(=O)N3CCC4(CC3)CCN(c3ccc(-c5ccnc(O)c5)cc3)C4=O)cc2)CC1` [Example 32, 2-[4-(2-hydroxypyridin-4-yl)phenyl]-8-[4-(4-methylpiperazin-1-yl)benzoyl]-2,8-diazaspiro[4.5]decan-1-one], the pIC50 is 7.27. This pIC50 lies 1.16 log units lower than the previous one. `COc1cc(N2CCC3(CCN(C(=O)c4cc(C)on4)CC3)C2=O)ccc1-c1cn[nH]c1` [Example 104, 2-[3-methoxy-4-(1H-pyrazol-4-yl)phenyl]-8-(5-methyl-1,2-oxazole-3-carbonyl)-2,8-diazaspiro[4.5]decan-1-one] showed a pIC50 of 7.14. Compound `COc1cccc(NC(=O)N2CCC3(CC2)CCN(c2ccc(-c4cn[nH]c4)c(OC)c2)C3=O)c1` [Example 216, 2-[3-methoxy-4-(1H-pyrazol-4-yl)phenyl]-N-(3-methoxyphenyl)-1-oxo-2,8-diazaspiro[4.5]decane-8-carboxamide] gave a pIC50 of 5.65. In turn, `COc1cc(N2CCC3(CCN(C(=O)c4ccc(-n5cncn5)cc4)CC3)C2=O)ccc1-c1cn[nH]c1` [Example 106, 2-[3-methoxy-4-(1H-pyrazol-4-yl)phenyl]-8-[4-(1H-1,2,4-triazol-1-yl)benzoyl]-2,8-diazaspiro[4.5]decan-1-one] showed a pIC50 of 7.60. In turn, `COc1cc(N2CCC3(CCN(C(=O)c4ncc(OC)c5ccccc45)CC3)C2=O)ccc1-c1cn[nH]c1` [Example 90, 2-[3-methoxy-4-(1H-pyrazol-4-yl)phenyl]-8-(4-methoxyisoquinoline-1-carbonyl)-2,8-diazaspiro[4.5]decan-1-one] gave a pIC50 of 6.90. Regarding `COc1ccc(C(=O)N2CCC3(CC2)CCN(c2cccc(-c4ccc5cn[nH]c5c4)c2)C3=O)cc1` [Example 50], the pIC50 is 5.77. Compound `COc1cc(N2CCC3(CCN(C(=O)c4ccc(N5CCN(C(C)CO)CC5)cc4)CC3)C2=O)ccc1-c1cn[nH]c1` (centres unmarked) [Example 242, 8-{4-[4-(1-hydroxypropan-2-yl)piperazin-1-yl]benzoyl}-2-[3-methoxy-4-(1H-pyrazol-4-yl)phenyl]-2,8-diazaspiro[4.5]decan-1-one] gave a pIC50 of 9.15. `COc1cccc(C(=O)N2CCC3(CC2)CCN(c2ccc(-c4cn[nH]c4)cc2)C3=O)c1` [Example 5, 8-(3-methoxybenzoyl)-2-[4-(1H-pyrazol-4-yl)phenyl]-2,8-diazaspiro[4.5]decan-1-one]: the pIC50 was 7.07. `O=C1N(c2ccc(-c3cn[nH]c3)cc2)CCC12CCNCC2` [Intermediate 3, 2-(4-(1H-pyrazol-4-yl)phenyl)-2,8-diazaspiro[4.5]decan-1-one, TFA] showed a pIC50 of 6.00. This pIC50 is 1.07 log units lower than that of the compound before. As for `COc1cc(N2CCC3(CCN(C(=O)c4ccc(N5CCN(Cc6cccc(NS(C)(=O)=O)c6)CC5)cc4)CC3)C2=O)ccc1-c1cn[nH]c1` [Example 235, N-(3-{[4-(4-{2-[3-methoxy-4-(1H-pyrazol-4-yl)phenyl]-1-oxo-2,8-diazaspiro[4.5]decane-8-carbonyl}phenyl)piperazin-1-yl]methyl}phenyl)methanesulfonamide], the pIC50 is 9.70. Compared with the last compound, the pIC50 is 3.70 log units higher. The compound `COc1cc(N2CCC3(CCN(C(=O)c4ccc5oc(C)nc5c4)CC3)C2=O)ccc1-c1cn[nH]c1` [Example 119, 2-[3-methoxy-4-(1H-pyrazol-4-yl)phenyl]-8-(2-methyl-1,3-benzoxazole-5-carbonyl)-2,8-diazaspiro[4.5]decan-1-one] showed a pIC50 of 7.15. As to `COc1cc(N2CCC3(CCN(C(=O)c4ccc(N5CCN(CC6CCCC6)CC5)cc4)CC3)C2=O)ccc1-c1cn[nH]c1` [Example 230, 8-{4-[4-(cyclopentylmethyl)piperazin-1-yl]benzoyl}-2-[3-methoxy-4-(1H-pyrazol-4-yl)phenyl]-2,8-diazaspiro[4.5]decan-1-one], the pIC50 was 8.66. For the compound `COc1cc(N2CCC3(CCN(C(=O)c4ccc(N5CCN(C(C)CN(C)C)CC5)cc4)CC3)C2=O)ccc1-c1cn[nH]c1` (centres unmarked) [Example 232, 8-(4-{4-[1-(dimethylamino)propan-2-yl]piperazin-1-yl}benzoyl)-2-[3-methoxy-4-(1H-pyrazol-4-yl)phenyl]-2,8-diazaspiro[4.5]decan-1-one], the pIC50 is 8.51.
